Molecular target: T1, Human HPK1, catalytic domain (Homo sapiens, UniProt Q92918)
T1 sequence (Q92918 1-346): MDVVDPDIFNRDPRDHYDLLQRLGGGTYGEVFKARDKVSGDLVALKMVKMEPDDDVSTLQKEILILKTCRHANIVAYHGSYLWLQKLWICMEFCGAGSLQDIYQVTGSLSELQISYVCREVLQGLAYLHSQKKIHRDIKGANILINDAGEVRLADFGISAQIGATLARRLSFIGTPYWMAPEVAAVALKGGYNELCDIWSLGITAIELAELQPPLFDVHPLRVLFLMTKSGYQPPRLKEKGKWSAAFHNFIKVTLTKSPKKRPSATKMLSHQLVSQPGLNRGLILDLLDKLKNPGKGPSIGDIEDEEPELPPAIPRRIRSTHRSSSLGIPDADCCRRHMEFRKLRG
Assay: HPK1-SLP76 TR-FRET Assay
Assay type: biochemical
Settings: 75 pM HPK1, ATP 10 uM, SLP76 10 nM, 30 min pre-incubation, 60 min reaction

IC50 [nM]	SMILES
392	CNC(=O)CNc1ccc2cnc(Nc3cc4c(cc3OC)CCN(C)C4)nc2c1 [Compound 3-70, N~2~-{2-[(6-methoxy-2-methyl-1,2,3,4-tetrahydroisoquinolin-7-yl)amino]quinazolin-7-yl}-N-methylglycinamide]
0.722	COc1nc(C)ccc1Nc1ncc2c(N)c(F)c(-c3cnc4c(c3C)NCCO4)cc2n1 [Compound 2-66, 6-fluoro-N~2~-(2-methoxy-6-methylpyridin-3-yl)-7-(8-methyl-2,3-dihydro-1H-pyrido[2,3-b][1,4]oxazin-7-yl)quinazoline-2,5-diamine]
1.34	Cc1c(-c2cc3nc(Nc4cncnc4)ncc3c(N)c2F)cnc2c1NCCO2 [Compound 2-19, 6-fluoro-7-(8-methyl-2,3-dihydro-1H-pyrido[2,3-b][1,4]oxazin-7-yl)-N~2~- (pyrimidin-5-yl)quinazoline-2,5-diamine]
0.0915	COc1cc2c(cc1Nc1ncc3c(N)c(F)c(-c4cnc5c(c4C)NCCO5)cc3n1)CN(C)CC2 [Compound 2-2, 6-fluoro-N~2~-(6-methoxy-2-methyl-1,2,3,4-tetrahydroisoquinolin-7-yl)-7-(8-methyl-2,3-dihydro-1H-pyrido[2,3-b][1,4]oxazin-7-yl)quinazoline-2,5-diamine]
273	COc1cc2c(cc1Nc1ncc3ccc(-c4cncc(C(=O)N5CCOCC5)c4)cc3n1)CNCC2 [Compound 1-47, (5-{2-[(6-methoxy-1,2,3,4-tetrahydroisoquinolin-7-yl)amino]quinazolin-7-yl}pyridin-3-yl)(morpholin-4-yl)methanone]
240	COc1cc2c(cc1Nc1ncc3ccc(NC4(C)COC4)cc3n1)CN(C)CC2 [Compound 3-55, N~2~-(6-methoxy-2-methyl-1,2,3,4-tetrahydroisoquinolin-7-yl)-N~7~-(3-methyloxetan-3-yl)quinazoline-2,7-diamine]
302	COc1cc2c(cc1Nc1ncc3ccc(-c4ccccc4-c4nnc(C)o4)cc3n1)CN(C)CC2 [Compound 1-110, N-(6-methoxy-2-methyl-1,2,3,4-tetrahydroisoquinolin-7-yl)-7-[2-(5-methyl-1,3,4-oxadiazol-2-yl)phenyl]quinazolin-2-amine]
38.3	COc1cc2c(cc1Nc1ncc3ccc(NCc4cnsn4)cc3n1)CN(C)CC2 [Compound 3-63, N~2~-(6-methoxy-2-methyl-1,2,3,4-tetrahydroisoquinolin-7-yl)-N~7-[(1,2,5-thiadiazol-3-yl)-methyl]quinazoline-2,7-diamine]
0.0589	Cc1c(-c2cc3nc(Nc4ccc5c(c4)CN(C)CC5)ncc3c(N)c2F)cnc2c1NCC(C)(C)O2 [Compound 2-166, 6-fluoro-N~2~-(2-methyl-1,2,3,4-tetrahydroisoquinolin-7-yl)-7-(3,3,8-trimethyl-2,3-dihydro-1H-pyrido[2,3-b][1,4]oxazin-7-yl)quinazoline-2,5-diamine]
365	COc1cc2c(cc1Nc1ncc3ccc(NCC4CC(=O)N(C)C4)cc3n1)CN(C)CC2 (racemic) [Compound 3-59, (S and R)-4-[({2-[(6-methoxy-2-methyl-1,2,3,4-tetrahydroiso-quinolin-7-yl)amino]quinazolin-7-yl}amino)methyl]-1-methyl-pyrrolidin-2-one]
0.275	Cc1c(-c2cc3nc(Nc4ccccc4)ncc3c(N)c2F)cnc2c1NCCO2 [Compound 2-25, 6-fluoro-7-(8-methyl-2,3-dihydro-1H-pyrido[2,3-b][1,4]oxazin-7-yl)-N~2~- phenylquinazoline-2,5-diamine]
369	COc1cc2c(cc1Nc1ncc3ccc(NC4CCN(C(C)=O)CC4)cc3n1)CN(C)CC2 [Compound 3-38, 1-[4-({2-[(6-methoxy-2-methyl-1,2,3,4-tetrahydroisoquinolin-7-yl)amino]quinazolin-7-yl}-amino)piperidin-1-yl]ethan-1-one]
245	COc1cc2c(cc1Nc1ncc3ccc(-c4cc(F)ccc4CN)cc3n1)CN(C)CC2 [Compound 1-7, 7-[2-(aminomethyl)-5-fluorophenyl]-N-(6 methoxy-2-methyl-1,2,3,4-tetrahydroisoquinolin-7-yl)quinazolin-2-amine]

— patent US20230399341A1, “7-PHENYL SUBSTITUTED 2-AMINOQUINAZOLINE INHIBITORS OF HPK1” (MERCK SHARP & DOHME LLC, priority 2020, published 2023)
